Data published in patent US20240252677A1, “ONE-COMPONENT DELIVERY SYSTEM FOR NUCLEIC ACIDS” (The Trustees of the University of Pennsylvania, priority 2021, published 2024).

Legend:
[1] = tested on: lung; assay: In vivo mRNA delivery, IVIS imaging of organs: lung; parameters: species or system mice; key to Organs with luminescence: lung: strong: Strong meant the luminescence intensity in that organ was relatively high, compared to other organs; weak: Weak meant the luminescence intensity in that organ was relatively low, compared to other organs; conditions: for Organs with luminescence: lung (weak/strong): Table 14
Protocol: (§1) The exposure time was 1 min.
(§2) Tissue luminescence signal was measured on the IVIS imaging system using an exposure time of 60 seconds using medium binning (binning=8) to ensure that the signal obtained was within operative detection range. […] Bioluminescence imaging was performed as described above.
(§3) Tissue luminescence signal was measured on the IVIS imaging system using a certain exposure time (60, 30 or 15 seconds) and medium binning (binning=8) to ensure that the signal obtained was within operative detection range.

[2] = Dimensions (size, PDI) of DNPs co-assembled from IAJDs and Luc-mRNA by DLS; type: physicochemical
Protocol: Dynamic Light Scattering (DLS) for the DNPs was performed in buffer with a Malvern Instruments particle sizer (Zetasizer Nano S, Malvern Instruments, UK) equipped with 4 mW He—Ne laser 633 nm and avalanche photodiode positioned at […] to the beam and temperature-controlled cuvette holder. Instrument parameters were determined automatically along with measurement times.
Formulation of DNPs Containing mRNA-Luc: IAJDs were dissolved in ethanol with various initial concentrations (5-160 mg/mL). Nucleoside-modified mRNA encoding firefly luciferase (mRNA-Luc) was dissolved in water with various initial concentrations (1-4 mg/mL). 12.5 μL of mRNA solution was placed into a clean RNAs free eppendorf (1.5 mL) and mixed with 463 μL of citrate buffer (10 mM, pH 3.0)/acetate buffer (10 mM). For encapsulation of mRNA into IAJDs, 25 μL of IAJDs of the ethanol stock solution was rapidly injected into mRNA solution in citrate or acetate buffer followed by vortex for 5 seconds.
(§4) Dynamic Light Scattering (DLS) for the sizes and polydispersities of DNPs was performed on a Malvern Instruments particle sizer (Zetasizer Nano S, Malvern Instruments, UK) equipped with 4 mW He—Ne laser 633 nm and avalanche photodiode positioned at 1750 to the beam and temperature-controlled cuvette holder. Instrument parameters were determined automatically along with measurement times. Sample solution (0.4 mL) was placed in a semi-micro cuvette (1.6 mL, polystyrene, 10×10×45 mm, manufactured by Greiner Bio-One) and the measurements were performed at 23° C.
Formulation of DNPs obtained by co-assembly of IAJDs and Luc-mRNA was performed as follows. IAJDs were dissolved in ethanol with an initial concentration of 80 mg/mL. Nucleoside-modified mRNA encoding firefly luciferase (Luc-mRNA) was dissolved in UltraPure DNase/RNase-free distilled water with an initial concentration of 4.0 mg/mL. 12.5 μL of Luc-mRNA solution was placed into a clean RNAs free eppendorf (1.5 mL) and 463 μL acetate buffer (10 mM, pH 4.0) was added. Then, 25 μL of IAJD in the ethanol stock solution was rapidly injected into the Luc-mRNA solution in acetate buffer followed by vortex for 5 seconds.
as §4, with “dimensions (sizes” for “sizes”, “polydispersities)” for “polydispersities”, “175°” for “1750”, “set up” for “determined”, “(c.a. 0.4” for “(0.4”, “mm,” for “mm, manufactured by”
Formulation of DNPs Co-assembled from IAJDs and Luc-mRNA: nucleoside-modified mRNA encoding firefly luciferase (Luc-mRNA) was dissolved in UltraPure DNase/RNase-free distilled water with an initial concentration of 4.0 mg/mL. IAJD molecules were dissolved in ethanol with an initial concentration of 80 mg/mL. 12.5 μL of Luc-mRNA solution was taken and placed into a clean RNAs free eppendorf (1.5 mL). Then 463 μL of acetate buffer (10 mM, pH 4.0) was added. Afterwards, 25 μL of IAJD in the ethanol stock solution was taken and rapidly injected into the above Luc-mRNA solution in acetate buffer followed by vortex for 5 seconds.

[3] = tested on: liver; assay: In vivo mRNA delivery, IVIS imaging of organs: liver; parameters: species or system mice; key to Organs with luminescence: liver: strong: Strong meant the luminescence intensity in that organ was relatively high, compared to other organs; weak: Weak meant the luminescence intensity in that organ was relatively low, compared to other organs; conditions: for Organs with luminescence: liver (weak/strong): Table 14
Protocol: as §1, §2, §3

[4] = Table 17, mice, IVIS, 4-6 h after injection, intensity relative to other organs
[5] = Table 12, DNPs, IAJD 4 mg/mL + Luc-mRNA 0.10 mg/mL, acetate buffer 10 mM pH 4.0
[6] = Table 13, DNPs, IAJD 4 mg/mL + Luc-mRNA 0.10 mg/mL, acetate buffer pH 4.0
[7] = Table 14, DNPs, IAJD 4 mg/mL + Luc-mRNA 0.10 mg/mL, acetate buffer pH 4.0
[8] = Table 17, DNPs used in vivo, IAJD 4 mg/mL, Luc-mRNA 0.10 mg/mL, acetate pH 4.0

Structure (SMILES) | PDI [2, 5] | Size (d, nm) [2, 5] | PDI [2, 6] | Size (d, nm) [2, 6] | PDI [2, 7] | Size (d, nm) [2, 7] | PDI [2, 8] | Size (d, nm) [2, 8] | Organs with luminescence: lung (weak/strong) ([1]; imaging 5 h after injection) | Organs with luminescence: lung [1, 4] | Organs with luminescence: liver (weak/strong) ([3]; imaging 5 h after injection) | Organs with luminescence: liver [3, 4] | Organs with luminescence: lung (weak/strong) ([1]; imaging 6 h after injection) | Organs with luminescence: liver (weak/strong) ([3]; imaging 6 h after injection)
CCCCCCCCCCCCOc1cc(COC(=O)CCCN2CCN(CCO)CC2)cc(OCCCCCCCCCCCC)c1 [IAJD 71, 3,5-Bis(dodecyloxy)benzyl 4-(4-(2-hydroxyethyl)piperazin-1-yl)butanoate] | 0.451 | 237 nm | 0.451 | 237 nm | 0.451 | 237 nm | 0.451 | 237 nm | Lung (weak), | Lung (weak), | liver (weak), | liver (weak), | – | –
CCCCCCCCCCCCCCOc1cc(COC(=O)CCCN2CCN(C)CC2)cc(OCCCCCCCCCCCCCC)c1 [IAJD 74, 3,5-Bis(tetradecyloxy)benzyl 4-(4-methylpiperazin-1-yl)butanoate] | 0.317 | 180 nm | 0.317 | 180 nm | 0.317 | 180 nm | – | – | Lung (weak), | – | liver (weak), | – | – | –
CCCCCCCCCCCCCCCCOc1cc(COC(=O)CCCN2CCN(C)CC2)cc(OCCCCCCCCCCCCCCCC)c1 [IAJD 75, 3,5-Bis(hexadecyloxy)benzyl 4-(4-methylpiperazin-1-yl)butanoate] | 0.328 | 235 nm | 0.328 | 235 nm | 0.328 | 235 nm | – | – | Lung (weak), | – | liver (weak), | – | – | –
CCCCC(CC)COc1cc(COC(=O)CCCN2CCN(C)CC2)cc(OCC(CC)CCCC)c1 (stereo not drawn) [IAJD 76, 3,5-Bis((2-ethylhexyl)oxy)benzyl 4-(4-methylpiperazin-1-yl)butanoate] | 0.287 | 78 nm | 0.287 | 78 nm | 0.287 | 78 nm | – | – | Lung (weak), | – | liver (weak), | – | – | –
CCCCCCCCCOc1cc(COC(=O)CCCN2CCN(C)CC2)cc(OCCCCCCCCC)c1 [IAJD 77, 3,5-Bis(nonyloxy)benzyl 4-(4-methylpiperazin-1-yl)butanoate] | 0.267 | 110 nm | 0.267 | 110 nm | 0.267 | 110 nm | – | – | Lung (weak), | – | liver (weak), | – | – | –
CCCCCCCCCCCCOc1cc(COC(=O)CCCN2CCN(C)CC2)cc(OCCCCCCCCCCCC)c1OCCCCCCCCCCCC [IAJD 79, 3,4,5-Tris(dodecyloxy)benzyl 4-(4-methylpiperazin-1-yl)butanoate] | 0.763 | 352 nm | 0.763 | 352 nm | 0.763 | 352 nm | – | – | – | – | – | – | Lung (weak), | liver (weak),
CCCCCCCCCCCCOCC(COCCCCCCCCCCCC)(COCCCCCCCCCCCC)COC(=O)CCCN1CCN(CCO)CC1 [IAJD 83, 3-(Dodecyloxy)-2,2-bis((dodecyloxy)methyl)propyl 4-(4-(2-hydroxyethyl)piperazin-1-yl)butanoate] | 0.430 | 143 nm | 0.430 | 143 nm | 0.430 | 143 nm | – | – | Lung (weak), | – | liver (weak), | – | – | –
CCCCCCCCCCCCOc1cc(COC(=O)CCN2CCN(C)CC2)cc(OCCCCCCCCCCCC)c1 [IAJD 84, 3,5-Bis(dodecyloxy)benzyl 3-(4-methylpiperazin-1-yl)propanoate] | 0.303 | 171 nm | 0.303 | 171 nm | 0.303 | 171 nm | – | – | Lung (weak), | – | liver (weak), | – | – | –

Further lines, with some results ahead:

PDI [2, 5] | Size (d, nm) [2, 5] | PDI [2, 6] | Size (d, nm) [2, 6] | PDI [2, 7] | Size (d, nm) [2, 7] | PDI [2, 8] | Size (d, nm) [2, 8] | Structure (SMILES) | Organs with luminescence: lung (weak/strong) ([1]; imaging 5 h after injection) | Organs with luminescence: lung [1, 4] | Organs with luminescence: liver (weak/strong) ([3]; imaging 5 h after injection) | Organs with luminescence: liver [3, 4] | Organs with luminescence: lung (weak/strong) ([1]; imaging 6 h after injection) | Organs with luminescence: liver (weak/strong) ([3]; imaging 6 h after injection)
0.250 | 102 nm | 0.250 | 102 nm | 0.250 | 102 nm | – | – | CCCCCCCOC(=O)CCCCOc1cc(COC(=O)CCCN2CCN(C)CC2)cc(OCCCCC(=O)OCCCCCCC)c1 [IAJD 85, Diheptyl 5,5′-((5-(((4-(4-methylpiperazin-1-yl)butanoyl)oxy)methyl)-1,3-phenylene)bis(oxy)) dipentanoate] | Lung (weak), | – | liver (weak), | – | – | –
0.486 | 146 nm | 0.486 | 146 nm | 0.486 | 146 nm | – | – | CCCCC(CC)COc1cc(COC(=O)CCCN2CCN(CCO)CC2)cc(OCC(CC)CCCC)c1 (stereo not drawn) [IAJD 87, 3,5-Bis((2-ethylhexyl)oxy)benzyl 4-(4-(2-hydroxyethyl)piperazin-1-yl)butanoate] | – | – | – | – | Lung (weak), | liver (weak),
0.342 | 100 nm | 0.342 | 100 nm | 0.342 | 100 nm | – | – | CCCCCCCCOc1cc(COC(=O)CCCN2CCN(C)CC2)cc(OCCCCCCCC)c1 [IAJD 88, 3,5-Bis(octyloxy)benzyl 4-(4-methylpiperazin-1-yl)butanoate] | – | – | – | – | Lung (weak), | liver (weak),
0.467 | 149 nm | 0.467 | 149 nm | 0.467 | 149 nm | – | – | CCCCCCCCOc1cc(COC(=O)CCCN2CCN(CCO)CC2)cc(OCCCCCCCC)c1 [IAJD 89] | – | – | – | – | Lung (weak), | liver (weak),
0.498 | 188 nm | 0.498 | 188 nm | 0.498 | 188 nm | – | – | CCCCCCCCCCOc1cc(COC(=O)CCCN2CCN(CCO)CC2)cc(OCCCCCCCCCC)c1 [IAJD 91, 3,5-Bis(decyloxy)benzyl 4-(4-(2-hydroxyethyl)piperazin-1-yl)butanoate] | – | – | – | – | Lung (weak), | liver (weak),
